Results as given in patent US20230227466A1, “SUBSTITUTED THIENOPYRIMIDINES THAT INTERACT WITH THE RAS SUPERFAMILY FOR THE TREATMENT OF CANCERS, INFLAMMATORY DISEASES, RASOPATHIES, AND FIBROTIC DISEASE” (SHY Therapeutics, LLC, priority 2020, published 2023).
Where two headings read alike, the source gives them in different places.

Assays:
KRas G12C mutant = biological target: T1, KRas G12C mutant (Homo sapiens, UniProt P01116, G12C); test: Ras GTP binding domain inhibition assay (labeled-GTP competition, cell-free)
T1 construct: made in house
Method in brief: (§1)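 Labeled-GTP competition read out as bound Cy3/Cy5-GTP fluorescence after washes, with 100 nM tracer for 45 min at RT. Before tracer, compounds at 20 μM, or a dilution series for IC50, sat 3 h at RT on the Ni-immobilized His-tagged GTPase. Sos GEF (10-30 μg/mL) was optionally present for the last hour.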

KRas G12D mutant = biological target: T2, KRas G12D mutant (Homo sapiens, UniProt P01116, G12D); test: as above
T2 construct: made in house
Method in brief: as §1

[1] = system: Akt phosphorylation in Panc-1 cells; test: Western AKT cell-based phosphorylation assay; parameters: species or system human; conditions: at 10 μM, values in brackets < > are activation %, not inhibition
Method in brief: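 Panc-1 cells starved overnight in 0.5% FBS, exposed to compound at 10 μM (0.3% DMSO) for 6 h at 37° C, then stimulated with 1.5 ng/ml EGF for 15 min. Lysates probed by western blot with anti-phospho-Akt (Ser473), equal protein loading checked by Ponceau S.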

[2] = system: MIA-PaCa-2 pancreatic cancer cell line (KRAS G12C); test: Cell proliferation assay (CellTiter 96 Aqueous One); assay type: cell-based; conditions: Homo sapiens; for IC50: MIA PaCa-2, MIA PaCa-2; for inhibition at 10 µM: MIA PaCa-2, read-out: % inh cell proliferation (10 μM) in MIA PaCa-2
Method in brief: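 After overnight attachment, compounds are added (10 μM final or serial dilutions) and left 2–4 days, with viability then measured by MTS.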

KRas wild type = KRas wild type (Homo sapiens, UniProt P01116); test: Ras GTP binding domain inhibition assay (labeled-GTP competition, cell-free); parameters: made in house
Method in brief: as §1

Rac-1 = Rac-1 (Homo sapiens, UniProt P63000); test: as above; parameters: made in house
Method in brief: as §1

Rho-A = Rho-A (Homo sapiens, UniProt P61586); test: as above; parameters: made in house
Method in brief: as §1

[3] = with SOS, read-out: KRas G12C mutant + SOS: % inh.
[4] = without SOS, read-out: KRas G12C mutant: % inh.
[5] = with SOS, read-out: KRas G12D mutant + SOS: % inh.
[6] = without SOS, read-out: KRas G12D mutant: % inh.
[7] = with SOS, read-out: KRas wild type + SOS: % inh.
[8] = without SOS, read-out: KRas wild type: % inh.
[9] = without SOS, read-out: Rac-1: % inh.
[10] = without SOS, read-out: Rho-A: % inh.
[11] = with SOS, read-out: Rac-1 + SOS: % inh.
[12] = with SOS, read-out: Rho-A + SOS: % inh.

SMILES | inhibition at 20 µM (KRas G12C mutant; [3]) [%] | inhibition at 20 µM (KRas G12C mutant; [4]) [%] | inhibition at 20 µM (KRas G12D mutant; [5]) [%] | inhibition at 20 µM (KRas G12D mutant; [6]) [%] | % inh of AKT phosphorylation in PANC-1 [1] | IC50 [2] [µM] | inhibition at 10 µM [2] [%] | inhibition at 20 µM (KRas wild type; [7]) [%] | inhibition at 20 µM (KRas wild type; [8]) [%] | inhibition at 20 µM (Rac-1; [9]) [%] | inhibition at 20 µM (Rho-A; [10]) [%] | inhibition at 20 µM (Rac-1; [11]) [%] | inhibition at 20 µM (Rho-A; [12]) [%]
COCC1CCN(c2nc(-c3nccn3C)nc3sc(-c4ccn(C(C)C)n4)c(-c4ccccc4)c23)C1 (racemic) [Compound 76, Rac-6-(1-isopropyl-1H-pyrazol-3-yl)-4-(3-(methoxymethyl)pyrrolidin-1-yl)-2-(1-methyl-1H-imidazol-2-yl)-5-phenylthieno[2,3-d]pyrimidine] | 0 | 1 to 25 | 26 to 50 | 51 to 75 | 0 (0% inhibition) | < 1 | 76 to 100 | 51 to 75 | 51 to 75 | 1 to 25 | 26 to 50 |  | 
COC1CCCN(c2nc(-c3nccn3C)nc3sc(-c4ccn(C(C)C)n4)c(-c4ccccc4)c23)C1 (racemic) [Compound 77, Rac-6-(1-isopropyl-1H-pyrazol-3-yl)-4-(3-methoxypiperidin-1-yl)-2-(1-methyl-1H-imidazol-2-yl)-5-phenylthieno[2,3-d]pyrimidine] | 0 | 26 to 50 | 26 to 50 | 51 to 75 | <A> | 5 to 10 | 76 to 100 | 26 to 50 | 26 to 50 | 1 to 25 | 26 to 50 |  | 
CO[C@H]1CC[C@@H](Nc2nc(-c3nccn3C)nc3sc(-c4cc[nH]n4)c(-c4ccccc4)c23)C1 (racemic) [Example 1, Rac-N-((1R,3S)-3-methoxycyclopentyl)-2-(1-methyl-1H-imidazol-2-yl)-5-phenyl-6-(1H-pyrazol-3-yl)thieno[2,3-d]pyrimidin-4-amine] | 1 to 25 | 1 to 25 | 0 | 0 | 0 (0% inhibition) | > 10 | 0 | 1 to 25 | 0 | 0 | 1 to 25 | 1 to 25 | 0
CO[C@H]1CC[C@@H](Nc2nc(-c3nccn3C)nc3sc(-c4ccn(C(C)C)n4)c(-c4ccccc4)c23)C1 [Compound 5, 6-(1-Isopropyl-1H-pyrazol-3-yl)-N-((1R,3S)-3-methoxycyclopentyl)-2-(1-methyl-1H-imidazol-2-yl)-5-phenylthieno[2,3-d]pyrimidin-4-amine] | 76 to 100 | 51 to 75 | 51 to 75 | 1 to 25 | D (76-100% inhibition) | < 1 | 76 to 100 | 76 to 100 | 51 to 75 | 26 to 50 | 51 to 75 | 26 to 50 | 51 to 75
COCCn1ccnc1-c1nc(N[C@H]2C[C@@H](OC)C2)c2c(-c3ccccc3)c(-c3ccn(C)n3)sc2n1 [Compound 7, N-((1s,3s)-3-Methoxycyclobutyl)-2-(1-(2-methoxyethyl)-1H-imidazol-2-yl)-6-(1-methyl-1H-pyrazol-3-yl)-5-phenylthieno[2,3-d]pyrimidin-4-amine] | 76 to 100 | 76 to 100 | 76 to 100 | 51 to 75 | 0 (0% inhibition) | 1 to 4.99 | 76 to 100 | 76 to 100 | 76 to 100 | 76 to 100 | 76 to 100 | 76 to 100 | 76 to 100
COCCn1ccnc1-c1nc(N[C@H]2C[C@@H](OC)C2)c2ccsc2n1 [Compound 9, N-((1s,3s)-3-Methoxycyclobutyl)-2-(1-(2-methoxyethyl)-1H-imidazol-2-yl)thieno[2,3-d]pyrimidin-4-amine] | 76 to 100 | 76 to 100 | 76 to 100 | 51 to 75 | 0 (0% inhibition) | > 10 | 1 to 25 | 76 to 100 | 76 to 100 | 76 to 100 | 76 to 100 | 76 to 100 | 76 to 100
NC(=O)c1nc(O)c2scc(-c3ccccn3)c2n1 [Compound 18, 4-Hydroxy-7-(pyridin-2-yl)thieno[3,2-d]pyrimidine-2-carboxamide] | 26 to 50 | 26 to 50 | 26 to 50 | 51 to 75 | 0 (0% inhibition) | > 10 | 0 | 1 to 25 | 26 to 50 | 26 to 50 | 26 to 50 | 26 to 50 | 26 to 50
O=C(c1nc(O)c2scc(-c3ccccn3)c2n1)N1CCCC1 [Compound 19, (4-Hydroxy-7-(pyridin-2-yl)thieno[3,2-d]pyrimidin-2-yl)(pyrrolidin-1-yl)methanone] | 1 to 25 | 1 to 25 | 1 to 25 | 26 to 50 | 0 (0% inhibition) | > 10 | 0 | 1 to 25 | 1 to 25 | 1 to 25 | 26 to 50 | 1 to 25 | 26 to 50
CC(C)NC(=O)c1nc(O)c2scc(-c3ccccn3)c2n1 [Compound 20, 4-Hydroxy-N-isopropyl-7-(pyridin-2-yl)thieno[3,2-d]pyrimidine-2-carboxamide] | 26 to 50 | 51 to 75 | 26 to 50 | 26 to 50 | 0 (0% inhibition) | > 10 | 1 to 25 | 1 to 25 | 51 to 75 | 26 to 50 | 26 to 50 | 26 to 50 | 26 to 50
COCCNC(=O)c1nc(O)c2scc(-c3ccccn3)c2n1 [Compound 21, 4-Hydroxy-N-(2-methoxyethyl)-7-(pyridin-2-yl)thieno[3,2-d]pyrimidine-2-carboxamide] | 26 to 50 | 26 to 50 | 26 to 50 | 26 to 50 | 0 (0% inhibition) | > 10 | 1 to 25 | 1 to 25 | 26 to 50 | 26 to 50 | 51 to 75 | 26 to 50 | 26 to 50
O=C(c1nc(O)c2scc(-c3ccccn3)c2n1)N1CCOCC1 [Compound 22, (4-Hydroxy-7-(pyridin-2-yl)thieno[3,2-d]pyrimidin-2-yl)(morpholino)methanone] | 0 | 1 to 25 | 0 | 1 to 25 | 0 (0% inhibition) | > 10 | 1 to 25 | 1 to 25 | 1 to 25 | 1 to 25 | 1 to 25 | 1 to 25 | 1 to 25
O=C(Nc1ccccc1)c1nc(O)c2scc(-c3ccccn3)c2n1 [Compound 23, 4-Hydroxy-N-phenyl-7-(pyridin-2-yl)thieno[3,2-d]pyrimidine-2-carboxamide] | 0 | 1 to 25 | 1 to 25 | 1 to 25 | 0 (0% inhibition) | > 10 | 0 | 1 to 25 | 1 to 25 | 1 to 25 | 1 to 25 | 1 to 25 | 1 to 25
